“And” between values parts separate entries of the source, which are not always exact repeats. Equal values may be shown once. Read-outs that look alike come from different tables or passages of the source.
How the values were obtained:
[1] = system: patients with primary hyperparathyroidism
Method: The substance ABDP, aminobutanediphosphonate has been used for venous infusion, 0.5-25 mg/day dissolved in 500 cc of 5% glucose solution in the following conditions:
Eight individuals having different degrees of calcemia varying to the extent of 17-11 mg%, were treated.

[2] = system: skull cells (lactate production); experiment: cells; format: cell-based, Wistar rats; conditions: Rattus norvegicus, 16 h, read-out: Effect on the production of lactate ± S.E.M.
Method: (§1) Cellular culture: the cells are cultured according to the method described by Fast et al, (Biochem. J. 172, 97-107 (1978)). By way of summary, the skulls removed from Wistar rats, one day old, are digested with collagenase. The cells set free are placed on a plate with concentration of 200,000 cells per cc of medium in disks "clusters" suitable for culture, the plates having 24 wells of 1.6 cm in diameter containing 0.5 cc of medium. The cells are cultivated in the essential minimum medium containing 10% of foetal calf serum in an atmosphere of 5% CO2 at 37° up to the eighth day. The bisphosphonates are added on the first day up to the end of the experiment. The medium is changed on the first, fourth and seventh day.
On the seventh day, the medium is changed and the cells are incubated for 16 hours. The lactate produced during this period is measured in an extract in HClO4 of the medium using lactatodehydrogenase.

[3] = system: bone reabsorption (metaphyseal bone density); experiment: Metaphyseal bone density / inhibition of bone reabsorption in rats treated for 7 days; format: in vivo; conditions: for metaphysical density: 7 days, rats
[4] = system: patients with Paget's disease
Method: (§2) The substance ABDP, aminobutanediphosphonate has been used for venous infusion, 0.5-25 mg/day dissolved in 500 cc of 5% glucose solution in the following conditions: […]

[5] = system: patients with widespread neoplastic osteolysis; conditions: six patients, 4 mg/day
Method: as §2

[6] = system: inhibition of the bone reabsorption
[7] = system: skull cells; experiment: cells; format: cell-based, Wistar rats; conditions: Rattus norvegicus, read-out: Effect on the cellular number ± S.E.M.
Method: as §1
The cells are counted with a Coulter counter after they have been set free from the disks by digestion with a mixture of collagenase and trypsin.

[8] = system: patients with tumoral osteolysis
[9] = system: patients with tumoral osteolysis; conditions: comparison stated for other bisphosphonates, no own test shown; cited from earlier work
[10] = system: injection sites / skin; experiment: Necrosis at the injection sites in rats (local skin toxicity)
From the text: The symbol "x" represents a conventional score, that is "x" meand slight necrosis, "xx" means severe necrosis, "xxx" means very severe necrosis.

[11] = Solubility in water; format: physicochemical
[12] = two patients, 50 mg, three days

NCCCC(O)(P(=O)(O)O)P(=O)(O)O [AHBU BP, 4-amino-1-hydroxybutan-1,1-biphosphonic acid]
times more active than Cl2 MDP ([1]; comparison in patients with primary hyperparathyroidism, Cl2 MDP data from Adami et al, 1983): 20-100 times
calcemia and hydroxyprolinuria ([1]; four patients, 4-8 mg/day, 3-4 days): the decrease of calcemia has been transitory, with the values of calcemia and the hydroxyprolinuria having a tendency to return to the basal values a few days after the suspension of the drug
calcemia ([1]; one case with border line calcemia, 4 mg/day for four days): has not caused any variation in the calcemia even if it is accompanied by a persistent reduction in the calcemia
calcemia ([1]; seven patients with very elevated calcemia, venous infusion): a drastic reduction of calcemia was achieved up to normal values in five of the patients
hydroxyprolinuria ([1]; simultaneous with decrease of calcemia): rapid and parallel decrease of hydroxyprolinuria
calcemia ([1]; three cases, 25 mg/day for seven days): normalization of calcemia up to the day of surgical intervention
activity at 2.5 µM [2]: 88 ± 1.5%
activity at 25 µM [2]: 79.6 ± 4.1%
activity at 250 µM [2]: 180 ± 18.6%
times superior activity versus AHPrBP (inhibition of bone reabsorption) ([3]; in vivo in rats): about 100 times
hydroxyprolinuria and alkaline phosphatemia at follow-up ([4]; after 6-8 months): normal values of hydroxyprolinuria and alkaline phosphatemia
alkaline phosphatemia ([4]; three patients, 4 mg or 0.5 mg per day): gradual decrease up to normal values after 3-4 months of therapeutic cycle
days of treatment after which painful bone symptoms decreased [5]: 5 to 8 days
calciuria ([5]; two weeks): normalization of calciuria
decrease of hydroxyprolinuria ([5]; in five days): 50-80%
times more active than Cl2 MDP (inhibition of the bone reabsorption) ([6]; clinical, overall conclusion): 100-300 times
activity on the immunity system ([6]; detailed observations in comparison not available yet): the activity on the immunity system appears to be peculiar to ABDP
activity at 2.5 µM [7]: 100 ± 1.6%
activity at 25 µM [7]: 101 ± 1.5%
activity at 250 µM [7]: 74.2 ± 4.7%
fever after administration ([8]; human, in vivo): not been followed by fever
effect of treatment [8, 12]: surprisingly every effective
period of remission of the symptoms [8, 12]: surprisingly long

NCCC(O)(P(=O)(O)O)P(=O)(O)O [AHPrBP, 3-amino-1-hydroxypropylidene-1,1-bisphosphonate]
metaphysical density ([3]; 0.01 mg P/kg s.c., s.c. NaCl controls 29.72): 39.53 % volume of calcified tissue
metaphysical density ([3]; 0.1 mg P/kg s.c., s.c. NaCl controls 29.72): 50.31 % volume of calcified tissue
metaphysical density ([3]; 2.0 mg P/kg p.o., p.o. NaCl controls 28.45): 33.72 % volume of calcified tissue
fever after administration [9]: occurs very frequently
necrosis at the injection sites ([10]; 0.01 mg P/kg, 1 day): .0.
necrosis at the injection sites ([10]; 0.01 mg P/kg, 2 day): .0.
necrosis at the injection sites ([10]; 0.01 mg P/kg, 3 day): .0.
necrosis at the injection sites ([10]; 0.01 mg P/kg, 4 day): .0.
necrosis at the injection sites ([10]; 0.01 mg P/kg, 5 day): .0.
necrosis at the injection sites ([10]; 0.01 mg P/kg, 6 day): .0.
necrosis at the injection sites ([10]; 0.01 mg P/kg, 7 day): .0.
necrosis at the injection sites ([10]; 0.1 mg P/kg, 1 day): .0.
necrosis at the injection sites ([10]; 0.1 mg P/kg, 2 day): .0.
necrosis at the injection sites ([10]; 0.1 mg P/kg, 3 day): .0.
necrosis at the injection sites ([10]; 0.1 mg P/kg, 4 day): .0.
necrosis at the injection sites ([10]; 0.1 mg P/kg, 5 day): .0.
necrosis at the injection sites ([10]; 1 mg P/kg, 1 day): xxx and .0.
necrosis at the injection sites ([10]; 1 mg P/kg, 2 day): xxx and .0.
necrosis at the injection sites ([10]; 1 mg P/kg, 3 day): .0.
necrosis at the injection sites ([10]; 10 mg P/kg, 1 day): xxx
necrosis at the injection sites ([10]; 10 mg P/kg, 2 day): xxx
local / topical skin toxicity, in words ([10]; rat, in vivo): The most toxic substance

O=P(O)(O)C(F)(F)P(=O)(O)O [Example 6, trisodium difluoromethanebiphosphonate]
solubility in water [11]: soluble in water

O=P(O)(O)C(F)(F)P(=O)(O)O [Example 8, lysine difluoromethanebiphosphonate]
solubility in water [11]: very soluble in water

Reference: US4621077A, “Pharmacologically active biphosphonates, process for the preparation thereof and pharmaceutical compositions therefrom” (Istituto Gentili S.p.A., priority 1982, dated 1986)
